The target in one experiment is T1, JAK2 tyrosine kinase (Homo sapiens, UniProt O60674).
T1 construct: purchased Carnabioscience Co
The experiment is described as follows: Test 1: inhibitory activity to JAK2 tyrosine kinase (ELISA). It counts as biochemical. Conditions: 25 μM ATP in substrate solution, 30° C. for 1 hour, n=2. A digest of the protocol: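 This is an ELISA read at A450 (HRP anti-phosphotyrosine antibody, TMB) of biotin-peptide phosphorylation captured on streptavidin. Enzyme solution was 0.75 nM JAK2, and the substrate solution was 625 nM peptide with 25 μM ATP in Tris pH 7.5 buffer. The reaction ran 1 h at 30 °C with compounds in duplicate, and IC50 was fitted non-linearly.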

Another experiment addresses T2, JAK3 tyrosine kinase (Homo sapiens, UniProt P52333).
T2 construct: purchased Carnabioscience Co
T2 sequence (P52333 1-1124): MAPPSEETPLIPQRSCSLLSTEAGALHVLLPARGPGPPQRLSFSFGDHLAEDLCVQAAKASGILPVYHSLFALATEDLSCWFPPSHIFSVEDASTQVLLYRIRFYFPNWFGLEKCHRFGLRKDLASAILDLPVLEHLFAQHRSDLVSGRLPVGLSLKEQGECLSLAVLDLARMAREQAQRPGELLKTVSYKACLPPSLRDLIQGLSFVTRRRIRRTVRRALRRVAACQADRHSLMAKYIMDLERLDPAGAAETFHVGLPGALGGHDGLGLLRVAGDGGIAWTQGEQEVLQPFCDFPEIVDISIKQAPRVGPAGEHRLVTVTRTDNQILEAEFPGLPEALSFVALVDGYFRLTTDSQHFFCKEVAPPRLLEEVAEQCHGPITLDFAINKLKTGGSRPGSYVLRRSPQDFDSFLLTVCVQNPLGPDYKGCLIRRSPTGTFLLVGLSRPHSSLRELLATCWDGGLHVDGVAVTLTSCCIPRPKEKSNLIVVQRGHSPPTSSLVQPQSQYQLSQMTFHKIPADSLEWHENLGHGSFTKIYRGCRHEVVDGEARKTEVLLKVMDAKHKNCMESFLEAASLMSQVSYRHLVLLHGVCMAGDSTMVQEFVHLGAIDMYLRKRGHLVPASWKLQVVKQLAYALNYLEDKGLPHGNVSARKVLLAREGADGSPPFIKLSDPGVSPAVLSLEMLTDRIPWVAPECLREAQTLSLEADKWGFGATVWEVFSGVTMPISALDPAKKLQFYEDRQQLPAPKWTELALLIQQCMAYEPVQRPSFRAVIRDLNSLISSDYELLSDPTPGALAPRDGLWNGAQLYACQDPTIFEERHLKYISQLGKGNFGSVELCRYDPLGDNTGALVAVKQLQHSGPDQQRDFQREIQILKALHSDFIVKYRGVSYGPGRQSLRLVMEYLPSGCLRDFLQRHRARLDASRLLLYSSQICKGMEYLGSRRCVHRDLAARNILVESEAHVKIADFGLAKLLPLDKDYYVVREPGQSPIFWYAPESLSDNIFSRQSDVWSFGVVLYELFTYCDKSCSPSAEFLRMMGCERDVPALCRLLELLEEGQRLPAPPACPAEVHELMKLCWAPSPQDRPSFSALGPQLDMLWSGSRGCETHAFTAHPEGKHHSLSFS
As to the kind of experiment: Test 1: inhibitory activity to JAK3 tyrosine kinase (ELISA). Format: biochemical. As to conditions: 25 μM ATP in substrate solution, 30° C. for 1 hour, n=2. A digest of the protocol:
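ELISA of JAK3 kinase activity with absorbance read at 450 nm. Compounds were tested from DMSO dilution series at 100-fold the measurement concentrations (1000–0.01 μM), diluted up to 20 times in assay buffer, against a DMSO negative control. IC50 was estimated by non-linear regression of absorbance.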

Where a name gives a salt, the structure may show the parent alone.

As usually defined, the IC50 is the midpoint of a concentration-inhibition curve.

T1 sequence (O60674 whole entry): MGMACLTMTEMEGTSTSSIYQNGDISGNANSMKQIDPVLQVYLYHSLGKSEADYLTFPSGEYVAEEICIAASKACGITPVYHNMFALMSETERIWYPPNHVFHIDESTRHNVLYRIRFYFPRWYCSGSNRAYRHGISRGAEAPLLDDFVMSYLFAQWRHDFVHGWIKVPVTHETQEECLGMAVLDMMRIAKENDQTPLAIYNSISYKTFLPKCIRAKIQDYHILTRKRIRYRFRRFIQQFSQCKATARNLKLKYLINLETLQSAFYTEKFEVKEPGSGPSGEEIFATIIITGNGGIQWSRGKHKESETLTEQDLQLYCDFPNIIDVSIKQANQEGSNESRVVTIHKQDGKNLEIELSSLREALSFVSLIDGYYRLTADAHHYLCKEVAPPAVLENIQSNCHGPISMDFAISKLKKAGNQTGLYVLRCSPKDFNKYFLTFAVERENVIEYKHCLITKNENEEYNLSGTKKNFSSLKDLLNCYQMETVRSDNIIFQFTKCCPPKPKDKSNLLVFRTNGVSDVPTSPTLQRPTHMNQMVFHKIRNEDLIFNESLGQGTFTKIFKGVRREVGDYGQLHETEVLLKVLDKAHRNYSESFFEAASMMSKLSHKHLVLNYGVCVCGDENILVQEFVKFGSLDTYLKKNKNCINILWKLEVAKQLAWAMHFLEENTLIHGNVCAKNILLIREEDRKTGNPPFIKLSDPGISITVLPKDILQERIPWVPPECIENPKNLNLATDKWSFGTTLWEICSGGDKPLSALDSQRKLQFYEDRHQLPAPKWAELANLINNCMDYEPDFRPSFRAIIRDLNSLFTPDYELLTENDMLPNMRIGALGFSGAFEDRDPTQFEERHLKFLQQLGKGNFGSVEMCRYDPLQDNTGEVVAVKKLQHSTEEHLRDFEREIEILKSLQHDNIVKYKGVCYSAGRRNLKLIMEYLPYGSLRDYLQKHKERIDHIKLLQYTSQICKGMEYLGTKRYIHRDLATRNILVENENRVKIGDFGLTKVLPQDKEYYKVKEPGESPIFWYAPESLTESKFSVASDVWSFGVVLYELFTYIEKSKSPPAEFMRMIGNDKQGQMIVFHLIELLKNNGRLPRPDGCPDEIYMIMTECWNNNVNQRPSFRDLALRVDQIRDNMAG

As to `C[C@H](Nc1cc(C(=O)NCC(F)(F)F)cc(Nc2cnccn2)n1)c1ccc(F)cc1` [Example 171, (S)-2-[1-(4-Fluorophenyl)ethylamino]-6-(pyrazin-2-ylamino)-N-(2,2,2-trifluoroethyl) isonicotinamide], the figures for the IC50 against JAK2 tyrosine kinase and against JAK3 tyrosine kinase were 1.9 nM and 570 nM, respectively.

For the compound `C[C@H](Nc1cc(C(=O)NCCCO)cc(Nc2cnccn2)n1)c1ccc(F)cc1` [Example 172, (S)-2-[1-(4-Fluorophenyl)ethylamino]-N-(3-hydroxypropyl)-6-(pyrazin-2-ylamino)isonicotinamide], the IC50 against JAK2 tyrosine kinase was 0.85 nM; against JAK3 tyrosine kinase, 150 nM.

For `CCOCCNC(=O)c1cc(Nc2cnccn2)nc(N[C@@H](C)c2ccc(F)cc2)c1` [Example 173, (S)—N-(2-Ethoxyethyl)-2-[1-(4-fluorophenyl)ethylamino]-6-(pyrazin-2-ylamino)isonicotinamide], the IC50 is 1.5 nM against JAK2 tyrosine kinase and 200 nM on JAK3 tyrosine kinase.

Turning to `CNC(=O)C1CN(c2cc(Nc3cnccn3)nc(N[C@@H](C)c3ccc(F)cc3)n2)C1` [Example 174], the IC50 against JAK2 tyrosine kinase turned out to be 0.99 nM; at JAK3 tyrosine kinase, 47 nM.

As to `COCc1cc(Nc2cnccn2)nc(N[C@@H](C)c2ccc(F)cc2)c1` [Example 175, (S)—N^2-[1-(4-Fluorophenyl)ethyl]-4-(methoxymethyl)-N^6-(pyrazin-2-yl)pyridine-2,6-diamine], the IC50 was 4.9 nM at JAK2 tyrosine kinase and 400 nM against JAK3 tyrosine kinase.

In the case of `C[C@H](Nc1nc(Nc2cnccn2)cc(N2CC(NS(C)(=O)=O)C2)n1)c1ccc(F)cc1` [Example 177, (S)—N-(1-{2-[1-(4-Fluorophenyl)ethylamino]-6-(pyrazin-2-ylamino)pyrimidin-4-yl}azetidin-3-yl)methanesulfonamide], the results for the IC50 at JAK2 tyrosine kinase and on JAK3 tyrosine kinase were 0.74 nM and 87 nM, respectively.

As for `C[C@H](Nc1nc(Nc2cnccn2)cc(N2CC(C#N)C2)n1)c1ccc(F)cc1` [Example 178, (S)-1-{2-[1-(4-Fluorophenyl)ethylamino]-6-(pyrazin-2-ylamino)pyrimidin-4-yl}azetidine-3-carbonitrile], the IC50 against JAK2 tyrosine kinase came to 1 nM; against JAK3 tyrosine kinase it was 82 nM.

Turning to `Cn1cc(-c2cc(Nc3cnccn3)nc(NC(CO)c3ccc(F)cc3)c2)cn1` (stereo not drawn) [Example 179, 2-(4-Fluorophenyl)-2-[4-(1-methyl-1H-pyrazol-4-yl)-6-(pyrazin-2-ylamino)pyridin-2-ylamino]ethanol], the results for the IC50 at JAK2 tyrosine kinase and against JAK3 tyrosine kinase were 2.6 nM and 330 nM, respectively.

For `CCNC(=O)C1CN(c2cc(Nc3cnccn3)nc(N[C@@H](C)c3ccc(F)cc3)n2)C1` [Example 180, (S)—N-Ethyl-1-{2-[1-(4-fluorophenyl)ethylamino]-6-(pyrazin-2-ylamino)pyrimidin-4-yl}azetidine-3-carboxamide], the concentration for half-maximal inhibition (IC50) on JAK2 tyrosine kinase stood at 2.5 nM; on JAK3 tyrosine kinase, 52 nM.

For `CCN(CC)C(=O)C1CN(c2cc(Nc3cnccn3)nc(N[C@@H](C)c3ccc(F)cc3)n2)C1` [Example 181, (S)—N,N-Diethyl-1-{2-[1-(4-fluorophenyl)ethylamino]-6-(pyrazin-2-ylamino)pyrimidin-4-yl}azetidine-3-carboxamide], the values for the IC50 at JAK2 tyrosine kinase and on JAK3 tyrosine kinase were 2.2 nM and 56 nM, respectively.

As for `CC(=O)c1cc(Nc2cnccn2)nc(N[C@@H](C)c2ccc(F)cc2)c1` [Example 182, (S)-1-{2-[1-(4-Fluorophenyl)ethylamino]-6-(pyrazin-2-ylamino)pyridin-4-yl}ethanone hydrochloride], the results for the IC50 at JAK2 tyrosine kinase and against JAK3 tyrosine kinase were 6.4 nM and 440 nM, respectively.

For `COC1CN(c2cc(Nc3cnccn3)nc(N[C@@H](C)c3ccc(F)cc3)n2)C1` [Example 183, (S)—N^2-[1-(4-Fluorophenyl)ethyl]-6-(3-methoxyazetidin-1-yl)-N^4-(pyrazin-2-yl)pyrimidine-2,4-diamine hydrochloride], the figures for the IC50 at JAK2 tyrosine kinase and at JAK3 tyrosine kinase were 1.8 nM and 59 nM, respectively.

`C[C@H](Nc1nc(Nc2cnccn2)cc(N2CC(C)(O)C2)n1)c1ccc(F)cc1` [Example 184, (S)-1-{2-[1-(4-Fluorophenyl)ethylamino]-6-(pyrazin-2-ylamino)pyrimidin-4-yl}-3-methylazetidin-3-ol hydrochloride]: the IC50 against JAK2 tyrosine kinase is 0.92 nM; against JAK3 tyrosine kinase, 45 nM.

`CNC(=O)c1ccc(Nc2cnccn2)nc1N[C@@H](C)c1ccc(F)cc1` [Example 185, (S)-2-[1-(4-Fluorophenyl)ethylamino]-N-methyl-6-(pyrazin-2-ylamino)nicotinamide]: the IC50 at JAK2 tyrosine kinase is 4.2 nM; against JAK3 tyrosine kinase it was 380 nM.

As for `C[C@H](Nc1nc(Nc2cnccn2)ccc1C(=O)N(C)C)c1ccc(F)cc1` [Example 186, (S)-2-[1-(4-Fluorophenyl)ethylamino]-N,N-dimethyl-6-(pyrazin-2-ylamino) nicotinamide], the IC50 on JAK2 tyrosine kinase stood at 5.5 nM; against JAK3 tyrosine kinase it was 240 nM.

Regarding `C[C@H](Nc1nc(Nc2cnccn2)ccc1C(N)=O)c1ccc(F)cc1` [Example 187, (S)-2-[1-(4-Fluorophenyl)ethylamino]-6-(pyrazin-2-ylamino) nicotinamide], the IC50 against JAK2 tyrosine kinase amounted to 2.4 nM; against JAK3 tyrosine kinase it was 400 nM.

As to `C[C@H](Nc1nc(Nc2cnccn2)ccc1C(=O)N1CCOCC1)c1ccc(F)cc1` [Example 188, (S)-{2-[1-(4-Fluorophenyl)ethylamino]-6-(pyrazin-2-ylamino)pyridin-3-yl}(morpholino)methanone dihydrochloride], the values for the IC50 at JAK2 tyrosine kinase and on JAK3 tyrosine kinase were 3.7 nM and 120 nM, respectively.

Take `C[C@H](Nc1nc(Nc2cnccn2)ccc1C(=O)NCC1CC1)c1ccc(F)cc1` [Example 189, (S)—N-(Cyclopropylmethyl)-2-[1-(4-fluorophenyl)ethylamino]-6-(pyrazin-2-ylamino)nicotinamide]: the IC50 came out at 12 nM at JAK2 tyrosine kinase and 1500 nM against JAK3 tyrosine kinase.

For `CCS(=O)(=O)NC1CN(c2cc(Nc3cnccn3)nc(N[C@@H](C)c3ccc(F)cc3)n2)C1` [Example 190, (S)—N-(1-{2-[1-(4-Fluorophenyl)ethylamino]-6-(pyrazin-2-ylamino)pyrimidin-4-yl}azetidin-3-yl)ethanesulfonamide], the 50% inhibitory concentration (IC50) at JAK2 tyrosine kinase was 1.2 nM; at JAK3 tyrosine kinase, 58 nM.

In the case of `CC(C)NC(=O)C1CN(c2cc(Nc3cnccn3)nc(N[C@@H](C)c3ccc(F)cc3)n2)C1` [Example 191, (S)-1-{2-[1-(4-Fluorophenyl)ethylamino]-6-(pyrazin-2-ylamino)pyrimidin-4-yl}-N-isopropylazetidine-3-carboxamide], the IC50 is 1.4 nM on JAK2 tyrosine kinase and 31 nM against JAK3 tyrosine kinase.

Regarding `C[C@H](Nc1nc(Nc2cnccn2)cc(N2CC(O)(C(F)(F)F)C2)n1)c1ccc(F)cc1` [Example 192, (S)-1-{2-[1-(4-Fluorophenyl)ethylamino]-6-(pyrazin-2-ylamino)pyrimidin-4-yl}-3-(trifluoromethyl)azetidin-3-ol hydrochloride], the results for the IC50 against JAK2 tyrosine kinase and against JAK3 tyrosine kinase were 1.9 nM and 120 nM, respectively.

For `C[C@H](Nc1nc(Nc2cnccn2)cc(N2CC(C(=O)N3CCCC3)C2)n1)c1ccc(F)cc1` [Example 193, (S)-(1-{2-[1-(4-Fluorophenyl)ethylamino]-6-(pyrazin-2-ylamino)pyrimidin-4-yl}azetidin-3-yl)(pyrrolidin-1-yl)methanone], the IC50 at JAK2 tyrosine kinase worked out at 0.8 nM; on JAK3 tyrosine kinase it was 35 nM.

For the compound `COCCNC(=O)C1CN(c2cc(Nc3cnccn3)nc(N[C@@H](C)c3ccc(F)cc3)n2)C1` [Example 194, (S)-1-{2-[1-(4-Fluorophenyl)ethylamino]-6-(pyrazin-2-ylamino)pyrimidin-4-yl}-N-(2-methoxyethyl) azetidine-3-carboxamide], the IC50 against JAK2 tyrosine kinase worked out at 0.79 nM; on JAK3 tyrosine kinase it was 84 nM.

With `C[C@H](Nc1nc(Nc2cnccn2)cc(N2CC(C(=O)N3CCCCC3)C2)n1)c1ccc(F)cc1` [Example 195, (S)-(1-{2-[1-(4-Fluorophenyl)ethylamino]-6-(pyrazin-2-ylamino)pyrimidin-4-yl}azetidin-3-yl)(piperidin-1-yl)methanone], the IC50 came out at 1.2 nM at JAK2 tyrosine kinase and 50 nM against JAK3 tyrosine kinase.

(Values after patent US8586591B2, “Aminopyrazine derivative and medicine” (Nippon Shinyaku Co., Ltd., priority 2009, dated 2013).)
